According to patent publication US20240116985A1, “STAPLED PEPTIDES AND METHODS THEREOF” (priority 2020, published 2024):

Target: T1, full-length beta-Catenin (Uniprot ID P35222) (Homo sapiens, UniProt P35222)
T1 construct: 10 nM full-length beta-Catenin (Uniprot ID P35222)
T1 sequence (P35222 1-781): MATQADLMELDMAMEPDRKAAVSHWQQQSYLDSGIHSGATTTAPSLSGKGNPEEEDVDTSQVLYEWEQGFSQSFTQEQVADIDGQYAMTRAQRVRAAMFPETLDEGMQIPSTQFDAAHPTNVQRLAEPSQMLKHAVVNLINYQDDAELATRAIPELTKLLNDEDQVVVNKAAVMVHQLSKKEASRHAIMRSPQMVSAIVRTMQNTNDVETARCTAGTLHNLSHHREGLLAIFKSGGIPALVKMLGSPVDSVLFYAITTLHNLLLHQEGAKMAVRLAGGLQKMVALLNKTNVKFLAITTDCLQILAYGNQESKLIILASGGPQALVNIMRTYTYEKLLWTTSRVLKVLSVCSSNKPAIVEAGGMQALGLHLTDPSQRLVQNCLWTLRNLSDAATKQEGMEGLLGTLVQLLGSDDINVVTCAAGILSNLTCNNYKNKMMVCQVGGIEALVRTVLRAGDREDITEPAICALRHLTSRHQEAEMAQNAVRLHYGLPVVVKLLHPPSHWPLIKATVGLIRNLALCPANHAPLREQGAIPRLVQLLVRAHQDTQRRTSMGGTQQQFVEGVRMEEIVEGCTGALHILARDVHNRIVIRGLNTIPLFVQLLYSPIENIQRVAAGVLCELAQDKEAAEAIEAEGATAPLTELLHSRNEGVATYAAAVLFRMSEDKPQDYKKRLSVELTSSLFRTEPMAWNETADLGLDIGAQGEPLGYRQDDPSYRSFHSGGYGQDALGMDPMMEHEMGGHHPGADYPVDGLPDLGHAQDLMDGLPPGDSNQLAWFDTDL
Assay: Fluorescence polarization IC50 (beta-catenin / 5FAM-TCF4 10-53 competition)
Assay type: binding
Settings: beta-Catenin FP IC50 (nM), fluorescence polarization

Row | Compound | IC50 [nM]
1 | CC(C)C[C@@H]1NC(=O)[C@H](Cc2ccccc2)NC(=O)[C@H](C)NC(=O)[C@H](C)NC(=O)[C@H](Cc2cccc(C(=O)O)c2)NC(=O)[C@H](CC(=O)O)NC(=O)C2(CCCC=CCCCOC(=O)N3CC[C@@](C(=O)N[C@@H](Cc4ccccc4Cl)C(=O)N[C@@H](Cc4csc5ccccc45)C(=O)N[C@@H](C)C(N)=O)(C3)NC1=O)CCCC=CC[C@]1(CCCN1C(=O)CCl)C(=O)N[C@@H](CC(=O)O)C(=O)N[C@@H](CC(C)(C)C)C(=O)N2 (stereo partly drawn) [I-2253, ClAc-PL3-Asp-Npg-B5-Asp-3COOHF-Ala-Ala-Phe-Leu-PyrS2-2C1F-BztA-Ala-NH2] | 189

Same assay, conditions: fluorescence polarization; read-out: beta-Catenin FP IC50

Row | Compound | IC50 [nM]
2 | CC(=O)N1CCC[C@]12CC=CCCCC1(CCCC=CCCCOC(=O)N3CC[C@@](C(=O)N[C@@H](Cc4cccc(C(N)=O)c4)C(=O)N[C@@H](Cc4csc5ccccc45)C(=O)N[C@@H](CCC(N)=O)C(N)=O)(C3)NC(=O)[C@H](CC(N)=O)NC(=O)[C@H](Cc3ccccc3)NC(=O)[C@H](C)NC(=O)[C@H](CCCCNC(C)C)NC(=O)[C@H](CCC(N)=O)NC(=O)[C@H](CC(=O)O)NC1=O)NC(=O)[C@H](CC1CCCCC1)NC(=O)[C@H](CC(N)=O)NC2=O (stereo partly drawn) [I-2164, Ac-PL3-Asn-Cha-B5-Asp-Gln-iPrLys-Ala-Phe-Asn-PyrS2-3cbmf-BztA-Gln-NH2] | 1180
3 | CC(=O)N1CCC[C@]12CCCCCCC1(CCCCCCCCOC(=O)N3CC[C@@](C(=O)N[C@@H](Cc4ccccc4Cl)C(=O)N[C@@H](Cc4csc5ccccc45)C(=O)N[C@@H](CCO)C(N)=O)(C3)NC(=O)[C@H](CCO)NC(=O)[C@H](Cc3ccccc3)NC(=O)[C@H](C)NC(=O)[C@H](C)NC(=O)[C@H](CN(CC(=O)O)CC(F)(F)F)NC(=O)[C@H](CC(=O)O)NC1=O)NC(=O)[C@H](CC(C)(C)C)NC(=O)[C@H](CC(=O)O)NC2=O (stereo partly drawn) [I-1699, Ac-PL3-Asp-Npg-B5-Asp-TfeGA-Ala-Ala-Phe-Hse-PyrS2-2C1F-BztA-Hse-NH2] | 533
4 | CC(=O)N1CCC[C@]12CC=CCCCC1(CCCC=CCCCOC(=O)N3CC[C@@](C(=O)N[C@@H](Cc4ccsc4)C(=O)N[C@@H](Cc4csc5ccccc45)C(=O)N[C@@H](CCC(N)=O)C(N)=O)(C3)NC(=O)[C@H](CC(N)=O)NC(=O)[C@H](CCc3ccccc3)NC(=O)[C@H](C)NC(=O)[C@H](C)NC(=O)[C@H]([C@@H](C)O)NC(=O)[C@H](CC(N)=O)NC1=O)NC(=O)[C@H](CC(C)(C)C)NC(=O)[C@H](CC(=O)O)NC2=O (stereo partly drawn) [I-2008, Ac-PL3-Asp-Npg-B5-Asn-Thr-Ala-Ala-hPhe-Asn-PyrS2-3Thi-BztA-Gln-NH2] | 8830
5 | CC(=O)N1CCC[C@]12CC=CCCCC1(CCCC=CCCCOC(=O)N3CC[C@@](C(=O)N[C@@H](Cc4ccsc4)C(=O)N[C@@H](Cc4cn(C)c5ccccc45)C(=O)N[C@@H](CCC(N)=O)C(N)=O)(C3)NC(=O)[C@H](CC(C)C)NC(=O)[C@H](Cc3ccccc3)NC(=O)[C@H](C)NC(=O)[C@H](C)NC(=O)[C@H](CC(=O)O)NC(=O)[C@H](CC(=O)O)NC1=O)NC(=O)[C@H](CC(C)(C)C)NC(=O)[C@H](CC(=O)O)NC2=O (stereo partly drawn) [I-1433, Ac-PL3-Asp-Npg-B5-Asp-Asp-Ala-Ala-Phe-Leu-PyrS2-3Thi-1MeW-Gln-NH2] | 71
6 | CCNC(=O)CC[C@H](NC(=O)[C@H](Cc1csc2ccccc12)NC(=O)[C@H](Cc1ccsc1)NC(=O)[C@]12CCN(C1)C(=O)OCCCC=CCCCC1(CCCC=CC[C@]3(CCCN3C(C)=O)C(=O)N[C@@H](CC(=O)O)C(=O)N[C@@H](CC(C)(C)C)C(=O)N1)C(=O)N[C@@H](CC(=O)O)C(=O)N[C@@H](Cc1cccc(C(=O)O)c1)C(=O)NC(C)(C)C(=O)N[C@@H](C)C(=O)N[C@@H](Cc1ccccc1)C(=O)N[C@@H](CC)C(=O)N2)C(=O)N[C@@H](C)C(N)=O (stereo partly drawn) [I-2473, Ac-PL3-Asp-Npg-B5-Asp-3COOHF-Aib-Ala-Phe-Abu-PyrS2-3Thi-BztA-[NHEt]GlnR-Ala-NH2] | 7
7 | CC(=O)N1CCC[C@]12CC=CCCCC1(CCCC=CCCCOC(=O)N3CC[C@@](C(=O)N[C@@H](CC4CCCC4)C(=O)N[C@@H](Cc4csc5ccccc45)C(=O)N[C@@H](CO)C(N)=O)(C3)NC(=O)[C@H](CC(C)C)NC(=O)[C@H](Cc3ccccc3)NC(=O)[C@H](C)NC(=O)[C@H](C)NC(=O)[C@H](Cc3cccc(C(=O)O)c3)NC(=O)[C@H](CC(=O)O)NC1=O)NC(=O)[C@H](CC(C)(C)C)NC(=O)[C@H](CC(=O)O)NC2=O (stereo partly drawn) [I-1896, Ac-PL3-Asp-Npg-B5-Asp-3COOHF-Ala-Ala-Phe-Leu-PyrS2-CypA-BztA-Ser-NH2] | 75
8 | CC(=O)N1CCC[C@]12CC=CCCCC1(CCCC=CCCCOC(=O)N3CC[C@@](C(=O)N[C@@H](Cc4ccsc4)C(=O)N[C@@H](Cc4csc5ccccc45)C(=O)N[C@@H](CCC(N)=O)C(N)=O)(C3)NC(=O)[C@H](CCC(=O)N3CCn4cncc4C3)NC(=O)[C@H](Cc3ccccc3)NC(=O)[C@H](C)NC(=O)[C@H](C)NC(=O)[C@H](CN(CC(=O)O)CC(F)(F)F)NC(=O)[C@H](CC(=O)O)NC1=O)NC(=O)[C@H](CC(C)(C)C)NC(=O)[C@H](CC(=O)O)NC2=O (stereo partly drawn) [I-1934, Ac-PL3-Asp-Npg-B5-Asp-TfeGA-Ala-Ala-Phe-[H4IAP]GlnR-PyrS2-3Thi-BztA-Gln-NH2] | 5
9 | CC(=O)N1CCC[C@]12CC=CCCCC1(CCCC=CCCCOC(=O)N3CC[C@@](C(=O)N[C@@H](Cc4ccccc4)C(=O)N[C@@H](Cc4csc5ccccc45)C(=O)N[C@@H](CCC(N)=O)C(N)=O)(C3)NC(=O)[C@H](CC(C)C)NC(=O)[C@H](Cc3ccccc3)NC(=O)[C@H](C)NC(=O)[C@H](CCCCNC(C)C)NC(=O)[C@H](CCO)NC(=O)[C@H](CC(=O)O)NC1=O)NC(=O)[C@H](CC1CCCCC1)NC(=O)[C@H](CC(N)=O)NC2=O (stereo partly drawn) [I-2345, Ac-PL3-Asn-Cha-B5-Asp-Hse-iPrLys-Ala-Phe-Leu-PyrS2-Phe-BztA-Gln-NH2] | 1270
10 | CC(=O)N1CCC[C@]12CC=CCCCC1(CCCC=CCCOC(=O)N3CCC(C(=O)N[C@@H](Cc4ccccc4C(F)(F)F)C(=O)N[C@@H](Cc4csc5ccccc45)C(=O)N[C@@H](CCC(N)=O)C(N)=O)(CC3)NC(=O)[C@H](CC(C)C)NC(=O)[C@H](Cc3ccccc3)NC(=O)[C@H](C)NC(=O)[C@H](C)NC(=O)[C@H](Cc3cccc(C(=O)O)c3)NC(=O)[C@H](CC(=O)O)NC1=O)NC(=O)[C@H](CC(C)(C)C)NC(=O)[C@H](CC(=O)O)NC2=O (stereo partly drawn) [I-2580, Ac-PL3-Asp-Npg-B5-Asp-3COOHF-Ala-Ala-Phe-Leu-SPip1-2F3MeF-BztA-Gln-NH2] | 993
11 | CC(=O)N1CCC[C@]12CC=CCCCC1(CCCC=CCCCOC(=O)N3CC[C@@](C(=O)N[C@@H](Cc4ccsc4)C(=O)N[C@@H](Cc4csc5ccccc45)C(=O)N[C@@H](CCC(N)=O)C(N)=O)(C3)NC(=O)[C@H](CC(N)=O)NC(=O)[C@H](Cc3cccc(C(=O)O)c3)NC(=O)[C@H](C)NC(=O)[C@H](C)NC(=O)[C@H](Cc3c[nH]c4ccccc34)NC(=O)[C@H](CC(=O)O)NC1=O)NC(=O)[C@H](CC(C)(C)C)NC(=O)[C@H](CC(=O)O)NC2=O (stereo partly drawn) [I-2127, Ac-PL3-Asp-Npg-B5-Asp-Trp-Ala-Ala-3COOHF-Asn-PyrS2-3Thi-BztA-Gln-NH2] | 36
12 | CC(=O)N1CCC[C@]12CC=CCCCC1(CCCC=CCCCOC(=O)N3CC[C@@](C(=O)N[C@@H](Cc4ccsc4)C(=O)N[C@@H](Cc4csc5ccccc45)C(=O)N[C@@H](CCC(N)=O)C(N)=O)(C3)NC(=O)[C@H](CC(N)=O)NC(=O)[C@H](Cc3cccc(C(F)(F)F)c3)NC(=O)[C@H](C)NC(=O)[C@H](C)NC(=O)[C@H]([C@@H](C)O)NC(=O)[C@H](CC(N)=O)NC1=O)NC(=O)[C@H](CC(C)(C)C)NC(=O)[C@H](CC(=O)O)NC2=O (stereo partly drawn) [I-2010, Ac-PL3-Asp-Npg-B5-Asn-Thr-Ala-Ala-3F3MeF-Asn-PyrS2-3Thi-BztA-Gln-NH2] | 1970
13 | CC(=O)N1CCC[C@]12CC=CCCCC1(CCCC=CCCCOC(=O)N3CC[C@@](C(=O)N[C@@H](Cc4ccsc4)C(=O)N[C@@H](Cc4csc5ccccc45)C(=O)N[C@@H](CCC(N)=O)C(N)=O)(C3)NC(=O)[C@H](CC(N)=O)NC(=O)[C@H](Cc3ccccc3)NC(=O)[C@H](C)NC(=O)[C@H](C)NC(=O)[C@H]([C@@H](C)O)NC(=O)[C@H](CC(N)=O)NC1=O)NC(=O)[C@H](C)NC(=O)[C@H](CC(=O)O)NC2=O (stereo partly drawn) [I-2002, Ac-PL3-Asp-Ala-B5-Asn-Thr-Ala-Ala-Phe-Asn-PyrS2-3Thi-BztA-Gln-NH2] | 612
14 | CC(=O)N1CCC[C@]12CC=CCCCC1(CCCC=CCCCOC(=O)N3CC[C@@](C(=O)N[C@@H](Cc4ccsc4)C(=O)N[C@@H](Cc4csc5ccccc45)C(=O)N[C@@H](C)C(N)=O)(C3)NC(=O)[C@H](CC(C)C)NC(=O)[C@H](Cc3ccccc3)NC(=O)[C@H](C)NC(=O)[C@H](C)NC(=O)[C@H](Cc3cccc(C(=O)O)c3)NC(=O)[C@H](CC(=O)O)NC1=O)NC(=O)[C@H](CC(C)(C)C)NC(=O)[C@H]([C@@H](O)C(=O)O)NC2=O (stereo partly drawn) [I-2258, Ac-PL3-RbOHAsp-Npg-B5-Asp-3COOHF-Ala-Ala-Phe-Leu-PyrS2-3Thi-BztA-Ala-NH2] | 272
